What was measured:
[1] = target: PHD2 enzyme (residues 181-417) (Homo sapiens (Human), UniProt Q9GZT9); assay: Inhibition of PHD enzyme (LC/MS peptide hydroxylation assay); type: biochemical; conditions: PHD2 (residues 181-417) 5 nM, 60 min pre-incubation, -log(IC50), IC50 molar
How it was run: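 PHD2 (5 nM final) preincubated with inhibitor 60 min at RT in 50 mM HEPES, 50 mM KCl, 0.5 mM TCEP, 2 uM FeCl2, 0.1 mg/ml BSA, pH 7.3. Reaction started with biotin-peptide (1 uM), 2-oxoglutarate (2 uM), ascorbate (1 mM), quenched at 60 min; hydroxylated product by LC/MS, reported as pIC50.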

[2] = test system: HIF1a protein in H9c2 rat cardiomyocytes; assay: Cell-based HIF-alpha stabilization assay (inhibition of PHD in cells); conditions: 24 hrs compound incubation, HIF1a protein by ELISA; for EC50: Rattus norvegicus, H9c2, 24 h, read-out: Inhibition of PHD in cells (pEC50) (converted)
How it was run: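 Rat H9c2 cardiomyocytes, cultured 24 h, were treated 24 h with an 11-point serial dilution of compound. HIF1a in whole-cell lysates was quantified by ELISA as % of the maximal desferrioxamine response. EC50 came from curve fitting; EC50pos is the concentration reaching 50% of the desferrioxamine maximum.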

Sequence of PHD2 enzyme (residues 181-417) (Q9GZT9 181-417): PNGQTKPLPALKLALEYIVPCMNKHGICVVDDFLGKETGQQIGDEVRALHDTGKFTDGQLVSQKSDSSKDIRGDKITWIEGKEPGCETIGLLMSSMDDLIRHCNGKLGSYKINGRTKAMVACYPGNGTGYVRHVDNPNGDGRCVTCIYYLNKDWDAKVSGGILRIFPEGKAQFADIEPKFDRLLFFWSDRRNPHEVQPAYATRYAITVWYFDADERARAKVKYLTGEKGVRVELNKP

| SMILES | PHD Inhibition (pIC50) [1] | IC50 ([1]; read-out: PHD Inhibition (pIC50) (converted)) | EC50 [2] | Inhibition of PHD in cells (pEC50) [2] |
| --- | --- | --- | --- | --- |
| CN1CCC(NC(=O)c2ccc(-n3ncc(-c4ccc(C#N)cc4)c3O)nc2)CC1 [Example 270, 6-(4-(4-cyanophenyl)-5-hydroxy-1H-pyrazol-1-yl)-N-(1-methylpiperidin-4-yl)nicotinamide] | 7.34 | – | 1000 nM | – |
| N#Cc1ccc(-c2cnn(-c3ccc(C(=O)NCc4ccccc4)cn3)c2O)cc1F [Example 188, N-benzyl-6-(4-(4-cyano-3-fluorophenyl)-5-hydroxy-1H-pyrazol-1-yl)nicotinamide] | 7.3 | – | 5250 nM | – |
| CO[C@H]1CC[C@@H](NC(=O)c2ccc(-n3ncc(-c4ccc(C#N)cc4)c3O)nc2)CC1 [Example 227, 6-(4-(4-cyanophenyl)-5-hydroxy-1H-pyrazol-1-yl)-N-((1s,4s)-4-methoxycyclohexyl)nicotinamide] | 7.38 | – | 550 nM | – |
| COC[C@H]1CCC[C@H]1NC(=O)c1ccc(-n2ncc(-c3ccc(C#N)cc3)c2O)nc1 [Example 110, 6-(4-(4-cyanophenyl)-5-hydroxy-1H-pyrazol-1-yl)-N-((1R,2S)-2-(methoxymethyl)cyclopentyl)nicotinamide] | 8.1 | – | 1230 nM | – |
| CC[C@H](C)NC(=O)c1ccc(-n2ncc(-c3ccc(C#N)cc3)c2O)nc1 [Example 87, (S)—N-(sec-butyl)-6-(4-(4-cyanophenyl)-5-hydroxy-1H-pyrazol-1-yl)nicotinamide] | 7.66 | – | 603 nM | – |
| COc1cc(-c2cnn(-c3ccc(C(=O)NCCCO)cn3)c2O)ccn1 [Example 26, 6-(5-hydroxy-4-(2-methoxypyridin-4-yl)-1H-pyrazol-1-yl)-N-(3-hydroxypropyl)nicotinamide] | – | 97.7 nM | 3630 nM | – |
| CO[C@H]1CC[C@H](NC(=O)c2ccc(-n3ncc(-c4ccc(C#N)cc4)c3O)nc2)CC1 [Example 229, 6-(4-(4-cyanophenyl)-5-hydroxy-1H-pyrazol-1-yl)-N-((1r,4r)-4-methoxycyclohexyl)nicotinamide] | 7.62 | – | 1050 nM | – |
| CCOc1cc(-c2cnn(-c3ccc(C(=O)NCCCOC)cn3)c2O)ccn1 [Example 218, 6-(4-(2-ethoxypyridin-4-yl)-5-hydroxy-1H-pyrazol-1-yl)-N-(3-methoxypropyl)nicotinamide] | 7.9 | – | 4680 nM | – |
| N#Cc1ccc(-c2cnn(-c3ccc(C(=O)NCCC4CCCO4)cn3)c2O)cc1 (stereo not shown) [Example 241, 6-(4-(4-cyanophenyl)-5-hydroxy-1H-pyrazol-1-yl)-N-(2-(tetrahydrofuran-2-yl)ethyl)nicotinamide] | 7.51 | – | 437 nM | – |
| COCCCNC(=O)c1ccc(-n2ncc(-c3ccc(C#N)c(OC)c3C)c2O)nc1 [Example 411, 6-(4-(4-cyano-3-methoxy-2-methylphenyl)-5-hydroxy-1H-pyrazol-1-yl)-N-(3-methoxypropyl)nicotinamide] | 8.20 | – | 676 nM | – |
| N#Cc1ccc(-c2cnn(-c3ccc(C(=O)NC4CC4)cn3)c2O)cc1 [Example 161, 6-(4-(4-cyanophenyl)-5-hydroxy-1H-pyrazol-1-yl)-N-cyclopropylnicotinamide] | 7.18 | – | 447 nM | – |
| COc1cc(-c2cnn(-c3ccc(C(=O)NCC4CN(C)CCO4)cn3)c2O)ccn1 (stereo not shown) [Example 46, 6-(5-hydroxy-4-(2-methoxypyridin-4-yl)-1H-pyrazol-1-yl)-N-((4-methylmorpholin-2-yl)methyl)nicotinamide] | 7.8 | – | 1350 nM | – |
| COc1cc(-c2cnn(-c3ccc(C(=O)NCCO)cn3)c2O)ccn1 [Example 25, 6-(5-hydroxy-4-(2-methoxypyridin-4-yl)-1H-pyrazol-1-yl)-N-(2-hydroxyethyl)nicotinamide] | 7.1 | – | 4470 nM | – |
| Cc1cc(C#N)ccc1-c1cnn(-c2ccc(C(=O)NCCCn3ccnc3)cn2)c1O [Example 106, N-(3-(1H-imidazol-1-yl)propyl)-6-(4-(4-cyano-2-methylphenyl)-5-hydroxy-1H-pyrazol-1-yl)nicotinamide] | 8 | – | 355 nM | – |

Further lines, with some results ahead:

| PHD Inhibition (pIC50) [1] | IC50 ([1]; read-out: PHD Inhibition (pIC50) (converted)) | SMILES | EC50 [2] | Inhibition of PHD in cells (pEC50) [2] |
| --- | --- | --- | --- | --- |
| 7.94 | – | Cc1cc(C#N)ccc1-c1cnn(-c2ccc(C(=O)N(C)CCN(C)C)cn2)c1O [Example 286, 6-(4-(4-cyano-2-methylphenyl)-5-hydroxy-1H-pyrazol-1-yl)-N-(2-(dimethylamino)ethyl)-N-methylnicotinamide] | 603 nM | – |
| 8.20 | – | Cc1cc(C#N)ccc1-c1cnn(-c2ccc(C(=O)N3CCN(C)[C@H](C)C3)cn2)c1O [Example 392, (R)-4-(1-(5-(3,4-dimethylpiperazine-1-carbonyl)pyridin-2-yl)-5-hydroxy-1H-pyrazol-4-yl)-3-methylbenzonitrile] | 355 nM | – |
| 8.50 | – | Cc1c(-c2cnn(-c3ccc(C(=O)N4CCN5CCC[C@@H]5C4)cn3)c2O)ccc(C#N)c1F [Example 334, (R)-2-fluoro-4-(5-hydroxy-1-(5-(octahydropyrrolo[1,2-a]pyrazine-2-carbonyl)pyridin-2-yl)-1H-pyrazol-4-yl)-3-methylbenzonitrile] | 1380 nM | – |
| 8.39 | – | CCN1CCN(C(=O)c2ccc(-n3ncc(-c4ccc(C#N)c(F)c4C)c3O)nc2)C[C@@H]1C [Example 328, (S)-4-(1-(5-(4-ethyl-3-methylpiperazine-1-carbonyl)pyridin-2-yl)-5-hydroxy-1H-pyrazol-4-yl)-2-fluoro-3-methylbenzonitrile] | 309 nM | – |
| 7.21 | – | Cc1cc(C#N)ccc1-c1cnn(-c2ccc(C(=O)N[C@H]3CC[C@@H](O)CC3)cn2)c1O [Example 131, 6-(4-(4-cyano-2-methylphenyl)-5-hydroxy-1H-pyrazol-1-yl)-N-((1 s,4s)-4-hydroxycyclohexyl)nicotinamide] | 257 nM | – |
| 7.91 | – | Cc1cc(C#N)ccc1-c1cnn(-c2ccc(C(=O)N3CCC[C@@H](N4CCCC4)C3)cn2)c1O [Example 387, (R)-4-(5-hydroxy-1-(5-(3-(pyrrolidin-1l-yl)piperidine-1-carbonyl)pyridin-2-yl)-1H-pyrazol-4-yl)-3-methylbenzonitrile] | 871 nM | – |
| 8.29 | – | Cc1cc(C#N)ccc1-c1cnn(-c2ccc(C(=O)N3CCN(C)C4(CC4)C3)cn2)c1O [Example 390, 4-(5-hydroxy-1-(5-(4-methyl-4,7-diazaspiro[2.5]octane-7-carbonyl)pyridin-2-yl)-1H-pyrazol-4-yl)-3-methylbenzonitrile] | 955 nM | – |
| 7.26 | – | Cc1cc(C#N)ccc1-c1cnn(-c2ccc(C(=O)N[C@H]3CC[C@H](O)CC3)cn2)c1O [Example 132, 6-(4-(4-cyano-2-methylphenyl)-5-hydroxy-1H-pyrazol-1-yl)-N-((1r,4r)-4-hydroxycyclohexyl)nicotinamide] | – | 6.59 |
| 8.287 | – | CCN1CCN(C(=O)c2ccc(-n3ncc(-c4ccc(C#N)cc4C)c3O)nc2)C[C@@H]1C [Example 370, (S)-4-(1-(5-(4-ethyl-3-methylpiperazine-1-carbonyl)pyridin-2-yl)-5-hydroxy-1H-pyrazol-4-yl)-3-methylbenzonitrile] | 562 nM | – |
